Assay: Dual-Glo Luciferase Assay: The Dual-Glo Luciferase Reagent was prepared by transferring the contents of one bottle of Dual-Glo Luciferase Buffer to one bottle of Dual-Glo Luciferase Substrate to create the Dual-Glo Luciferase Reagent. Mixing was performed by inversion until the substrate was thoroughly dissolved. After mixing, the reagent was aliquoted into 15 ml tubes. In the afternoon (24 hrs post compound treatment), the DMEM+medium in the 384 well plates were aspirated by Microplate Washer.Measuring firefly luciferase activity: 20 ul Dual-Glo Luciferase Reagent was added to the 384-well plates. The plates were protected from light to prevent interference with the assay. The plates were shaken for 1 min followed centrifuging plates at 1000 rpm for 30 seconds. After waiting at least 10 minutes, the firefly luminescence was measured by Envision.Measuring renilla luciferase activity: 20 ul Stop-Glo Reagent was added to the 384-well plates. The plates were shaken for 1 min and then centrifuged at 1000 rpm for 30 seconds. After waiting at least 10 minutes, the renilla luminescence was measured by Envision.Compound IC50 and maximum inhibition on the firefly luciferase and renilla luciferase activities were reported separately.

Row | SMILES | IC50
1 | CC(C)NC(=O)c1ccc2c(Oc3ccc(C(F)(F)F)cc3)nccc2c1 | < 100 nM
2 | O=C(NC(CO)c1ccccn1)c1cnc2c(Oc3ccc(C(F)(F)F)cc3)cccc2c1 (stereo unspecified) | < 100 nM
3 | COc1cc(Oc2ccc(C(F)(F)F)cc2)c2ncc(C(=O)N[C@@H](C)c3ccccn3)cc2c1 | < 100 nM
4 | C[C@H](CCNCCO)NC(=O)c1ccc2c(Oc3ccc(C(F)(F)F)cc3)cccc2c1 | < 100 nM
5 | C[C@@H](NC(=O)c1ccc2c(Oc3ccc(C(F)(F)F)cc3)cccc2c1)C1CN(CCCCO)C1 | in the range around 550 nM
6 | CS(=O)(=O)NC(=O)c1ccc2c(Oc3ccc(Cl)c(Cl)c3)cccc2c1 | < 100 nM
7 | C#CCCNC(=O)c1ccc2c(Oc3ccc(C(F)(F)F)cc3)cccc2c1 | < 100 nM
8 | CC(C)NC(=O)c1ccc2c(Oc3ccc(C(F)(F)F)cc3F)cccc2c1 | < 100 nM
9 | O=C(N[C@@H](CO)C1CNC1)c1ccc2c(Oc3ccc(C(F)(F)F)cc3)cccc2c1 | in the range around 2000 nM
10 | CCN1CC([C@@H](C)NC(=O)c2ccc3c(Oc4ccc(C(F)(F)F)cc4)cccc3c2)C1 | in the range around 550 nM
11 | C[C@H](NC(=O)c1ccc2c(Oc3ccc(C(F)(F)F)cc3)cccc2c1)C1(O)CNC1 | in the range around 550 nM
12 | C[C@H](NC(=O)c1ccc2c(Oc3ccc(C(F)(F)F)cc3)cccc2c1)C1CCC1 | < 100 nM
13 | CS(=O)(=O)NC(=O)c1ccc2c(Oc3ccc(F)c(F)c3)cccc2c1 | < 100 nM
14 | COC[C@H](C)NC(=O)c1cnc2c(Oc3ccc(C(F)(F)F)cc3)cc(OC)cc2c1 | < 100 nM
15 | CNCC[C@@H](C)NC(=O)c1ccc2c(Oc3ccc(C(F)(F)F)cc3)cccc2c1 | < 100 nM
16 | CC(C)NC(=O)c1ccc2c(Oc3ccc(C(F)(F)F)cc3)ccnc2c1 | in the range around 550 nM
17 | C[C@H](NC(=O)c1ccc2c(Oc3ccc(C(F)(F)F)cc3)cccc2c1)C1(F)CNC1 | in the range around 2000 nM
18 | C[C@@H](NC(=O)c1ccc2c(Oc3ccc(C(F)(F)F)cc3)cccc2c1)C1CCN(C)CC1 | < 100 nM
19 | COC[C@H](C)NC(=O)c1cnc2c(Oc3ccc(C(F)(F)F)cc3)cccc2c1 | < 100 nM
20 | C[C@@H](NC(=O)c1ccc2c(Oc3ccc(C(F)(F)F)cc3)cccc2c1)C1CN(CC(F)F)C1 | < 100 nM
21 | COc1cc(Oc2ccc(C(F)(F)F)cc2)c2ncc(C(=O)N[C@H](C)c3ccccn3)cc2c1 | in the range around 550 nM
22 | C[C@H](NC(=O)c1ccc2c(Oc3ccc(C(F)(F)F)cc3)cccc2c1)C1CN(CCF)C1 | in the range around 2000 nM
23 | C[C@H](CO)NC(=O)c1cc2cccc(Oc3ccc(C(F)(F)F)cc3)c2s1 | < 100 nM
24 | CC(C)NC(=O)c1ccc2c(Oc3ccc(Cl)cc3)cccc2c1 | < 100 nM
25 | C#CCNC(=O)c1ccc2c(Oc3ccc(C(F)(F)F)cc3)cccc2c1 | < 100 nM
26 | C[C@H](NC(=O)c1ccc2c(Oc3ccc(C(F)(F)F)cc3)cccc2c1)C1CN(C2CC2)C1 | in the range around 2000 nM
27 | C[C@H](CCNCCF)NC(=O)c1ccc2c(Oc3ccc(C(F)(F)F)cc3)cccc2c1 | < 100 nM

Row | SMILES | IC50
28 | C[C@@H](NC(=O)c1ccc2c(Oc3ccc(C(F)(F)F)cc3)cccc2c1)C1CN(CCO)C1 | in the range around 550 nM
29 | C[C@H](NC(=O)c1ccc2c(Oc3ccc(C(F)(F)F)cc3)cccc2c1)C1CN(CC(F)F)C1 | in the range around 2000 nM
30 | COC[C@@H](C)NC(=O)c1cnc2c(Oc3ccc(C(F)(F)F)cc3)cccc2c1 | in the range around 550 nM
31 | CC(=O)N1CC([C@@H](C)NC(=O)c2ccc3c(Oc4ccc(C(F)(F)F)cc4)cccc3c2)C1 | in the range around 550 nM
32 | CC(C)N1CCC([C@@H](C)NC(=O)c2ccc3c(Oc4ccc(C(F)(F)F)cc4)cccc3c2)CC1 | in the range around 550 nM
33 | CC(=O)N1CC([C@H](C)NC(=O)c2ccc3c(Oc4ccc(C(F)(F)F)cc4)cccc3c2)C1 | in the range around 550 nM
34 | C[C@H](CCN(C)C)NC(=O)c1ccc2c(Oc3ccc(C(F)(F)F)cc3)cccc2c1 | < 100 nM
35 | C[C@H](NC(=O)c1ccc2c(Oc3ccc(C(F)(F)F)cc3)cccc2c1)C1CNC1 | < 100 nM
36 | COc1cc(Oc2ccc(C(F)(F)F)cc2)c2ncc(C(=O)NC(C)C)cc2c1 | < 100 nM
37 | O=C(NC1(c2ccccc2)CC1)c1ccc2c(Oc3ccc(C(F)(F)F)cc3)cccc2c1 | < 100 nM
38 | CCNCC[C@@H](C)NC(=O)c1ccc2c(Oc3ccc(C(F)(F)F)cc3)cccc2c1 | < 100 nM
39 | N#CCCNC(=O)c1ccc2c(Oc3ccc(C(F)(F)F)cc3)cccc2c1 | < 100 nM
40 | N#CCNC(=O)c1ccc2c(Oc3ccc(C(F)(F)F)cc3)cccc2c1 | < 100 nM
41 | COC[C@@H](C)NC(=O)c1cnc2c(Oc3ccc(C(F)(F)F)cc3)cc(OC)cc2c1 | < 100 nM
42 | O=C(NC(CO)Cc1ccccn1)c1ccc2c(Oc3ccc(C(F)(F)F)cc3)cccc2c1 (stereo unspecified) | < 100 nM
43 | C[C@@H](NC(=O)c1ccc2c(Oc3ccc(C(F)(F)F)cc3)cccc2c1)C1CN(CCF)C1 | < 100 nM
44 | C[C@H](CO)NC(=O)c1cnc2c(Oc3ccc(C(F)(F)F)cc3)cccc2c1 | < 100 nM
45 | CN(C#N)CCNC(=O)c1ccc2c(Oc3ccc(C(F)(F)F)cc3)cccc2c1 | < 100 nM
46 | C[C@@H](NC(=O)c1ccc2c(Oc3ccc(C(F)(F)F)cc3)cccc2c1)C1CN(C2CC2)C1 | < 100 nM
47 | CC(C)NC(=O)c1cnc2c(Oc3ccc(C(F)(F)F)cc3)cccc2c1 | < 100 nM
48 | C[C@H](NC(=O)c1ccc2c(Oc3ccc(C(F)(F)F)cc3)cccc2c1)C1CN(C)C1 | in the range around 2000 nM
49 | CC(C)N1CC([C@H](C)NC(=O)c2ccc3c(Oc4ccc(C(F)(F)F)cc4)cccc3c2)C1 | in the range around 550 nM
50 | CC(C)NC(=O)c1ccc2c(Oc3ccc(Cl)c(Cl)c3)cccc2c1 | < 100 nM
51 | C[C@@H](NC(=O)c1ccc2c(Oc3ccc(C(F)(F)F)cc3)cccc2c1)C1CN(C)C1 | in the range around 550 nM
52 | O=C(NC(CCO)CCO)c1ccc2c(Oc3ccc(C(F)(F)F)cc3)cccc2c1 | < 100 nM
53 | C[C@@H](NC(=O)c1cnc2c(Oc3ccc(C(F)(F)F)cc3)cccc2c1)c1cccc2ccsc12 | in the range around 550 nM

Results, then the compound that gave them:

Row | IC50 | SMILES
54 | in the range around 550 nM | C[C@H](NC(=O)c1ccc2c(Oc3ccc(C(F)(F)F)cc3)cccc2c1)c1cccc(N(C)C)n1
55 | < 100 nM | C[C@H](CCN)NC(=O)c1ccc2c(Oc3ccc(C(F)(F)F)cc3)cccc2c1
56 | in the range around 550 nM | C[C@H](NC(=O)c1ccc2c(Oc3ccc(C(F)(F)F)cc3)cccc2c1)c1cnccn1
57 | < 100 nM | CC#C[C@@H](C)NC(=O)c1ccc2c(Oc3ccc(C(F)(F)F)cc3)cccc2c1
58 | < 100 nM | C[C@@H](NC(=O)c1ccc2c(Oc3ccc(C(F)(F)F)cc3)cccc2c1)c1cnccn1
59 | < 100 nM | C[C@@H](NC(=O)c1ccc2c(Oc3ccc(C(F)(F)F)cc3)cccc2c1)C(N)=O
60 | < 100 nM | C[C@@H](NC(=O)c1ccc2c(Oc3ccc(C(F)(F)F)cc3)cccc2c1)c1cccc2cn[nH]c12
61 | in the range around 550 nM | C[C@H](NC(=O)c1ccc2c(Oc3ccc(C(F)(F)F)cc3)cccc2c1)c1cn(C)cn1
62 | in the range around 550 nM | C[C@H](NC(=O)c1ccc2c(Oc3ccc(C(F)(F)F)cc3)cccc2c1)c1cc(N)ccn1
63 | < 100 nM | C[C@@H](NC(=O)c1ccc2c(Oc3ccc(C(F)(F)F)cc3)cccc2c1)C1CC1
64 | in the range around 550 nM | C[C@H](NC(=O)c1ccc2c(Oc3ccc(C(F)(F)F)cc3)cccc2c1)c1nnnn1C
65 | in the range around 550 nM | C[C@H](NC(=O)c1ccc2c(Oc3ccc(C(F)(F)F)cc3)cccc2c1)c1cccc(N)n1
66 | < 100 nM | C[C@H](CO)NC(=O)c1ccc2c(Oc3ccc(C(F)(F)F)cc3)cccc2c1
67 | in the range around 550 nM | C[C@H](NC(=O)c1ccc2c(Oc3ccc(C(F)(F)F)cc3)cccc2c1)c1ncc[nH]1
68 | < 100 nM | C[C@H](NC(=O)c1ccc2c(Oc3ccc(C(F)(F)F)cc3)cccc2c1)c1cccnc1N
69 | < 100 nM | C[C@H](NC(=O)c1ccc2c(Oc3ccc(C(F)(F)F)cc3)cccc2c1)c1ccccc1Cl
70 | < 100 nM | C[C@@H](NC(=O)c1ccc2c(Oc3ccc(C(F)(F)F)cc3)cccc2c1)c1cn(C)cn1

Row | IC50 | SMILES
71 | < 100 nM | C[C@@H](CCO)NC(=O)c1ccc2c(Oc3ccc(C(F)(F)F)cc3)cccc2c1
72 | < 100 nM | C[C@@H](CN)NC(=O)c1ccc2c(Oc3ccc(C(F)(F)F)cc3)cccc2c1
73 | < 100 nM | COC[C@@H](C)NC(=O)c1ccc2c(Oc3ccc(C(F)(F)F)cc3)cccc2c1
74 | < 100 nM | COC[C@H](C)NC(=O)c1ccc2c(Oc3ccc(C(F)(F)F)cc3)cccc2c1
75 | < 100 nM | O=C(NC(CCO)c1ccccn1)c1ccc2c(Oc3ccc(C(F)(F)F)cc3)cccc2c1 (stereo unspecified)
76 | < 100 nM | CC(NC(=O)c1ccc2c(Oc3ccc(C(F)(F)F)cc3)cccc2c1)c1cc(Br)ccn1 (stereo unspecified)
77 | < 100 nM | O=C(NC(CO)c1ccccn1)c1ccc2c(Oc3ccc(C(F)(F)F)cc3)cccc2c1 (stereo unspecified)
78 | < 100 nM | C[C@H](CCO)NC(=O)c1ccc2c(Oc3ccc(C(F)(F)F)cc3)cccc2c1
79 | < 100 nM | C[C@@H](NC(=O)c1ccc2c(Oc3ccc(C(F)(F)F)cc3)cccc2c1)c1cccc(N(C)C)n1
80 | in the range around 2000 nM | C[C@@H](NC(=O)c1ccc2c(Oc3ccc(C(F)(F)F)cc3)cccc2c1)c1cc(N(C)C)ccn1
81 | < 100 nM | O=C(N[C@@H](CCO)c1ccccn1)c1ccc2c(Oc3ccc(C(F)(F)F)cc3)cccc2c1
82 | in the range around 550 nM | C[C@@H](NC(=O)c1ccc2c(Oc3ccc(C(F)(F)F)cc3)cccc2c1)c1nnnn1C
83 | < 100 nM | C[C@@H](NC(=O)c1ccc2c(Oc3ccc(C(F)(F)F)cc3)cccc2c1)C1CNC1
84 | < 100 nM | C[C@@H](NC(=O)c1ccc2c(Oc3ccc(C(F)(F)F)cc3)cccc2c1)c1cc(N)ccn1
85 | in the range around 550 nM | C[C@H](NC(=O)c1ccc2c(Oc3ccc(C(F)(F)F)cc3)cccc2c1)c1nccn1C
86 | < 100 nM | C[C@@H](NC(=O)c1ccc2c(Oc3ccc(C(F)(F)F)cc3)cccc2c1)c1c[nH]cn1
